Assay results published in patent US6500853B1, “Inhibitors of phospholipase enzymes” (Genetics Institute, LLC, priority 1998, dated 2002).
Several values for one entry are separate records, joined by “and”; a condition that tells them apart may be missing. Equal entries are not always repeated. Blank lines part the entries; values can stand above or below the compound they belong to.

Experiments:
[1] = target: T1, cPLA2 (Homo sapiens, UniProt P47712); assay: Coumarin Assay (cPLA2 inhibition); type: biochemical; details: for inhibition at 30 µM: CONCENTRATION 30 micromolar; for inhibition at 0.65 µM: CONCENTRATION 0.65 micromolar; for inhibition at 0.7 µM: CONCENTRATION 0.7 micromolar; for inhibition at 0.95 µM: CONCENTRATION 0.95 micromolar; for inhibition at 2.5 µM: CONCENTRATION 2.5 micromolar; for inhibition at 6.25 µM: CONCENTRATION 6.25 micromolar; for inhibition at 0.85 µM: CONCENTRATION 0.85 micromolar
T1 sequence (P47712 1-749): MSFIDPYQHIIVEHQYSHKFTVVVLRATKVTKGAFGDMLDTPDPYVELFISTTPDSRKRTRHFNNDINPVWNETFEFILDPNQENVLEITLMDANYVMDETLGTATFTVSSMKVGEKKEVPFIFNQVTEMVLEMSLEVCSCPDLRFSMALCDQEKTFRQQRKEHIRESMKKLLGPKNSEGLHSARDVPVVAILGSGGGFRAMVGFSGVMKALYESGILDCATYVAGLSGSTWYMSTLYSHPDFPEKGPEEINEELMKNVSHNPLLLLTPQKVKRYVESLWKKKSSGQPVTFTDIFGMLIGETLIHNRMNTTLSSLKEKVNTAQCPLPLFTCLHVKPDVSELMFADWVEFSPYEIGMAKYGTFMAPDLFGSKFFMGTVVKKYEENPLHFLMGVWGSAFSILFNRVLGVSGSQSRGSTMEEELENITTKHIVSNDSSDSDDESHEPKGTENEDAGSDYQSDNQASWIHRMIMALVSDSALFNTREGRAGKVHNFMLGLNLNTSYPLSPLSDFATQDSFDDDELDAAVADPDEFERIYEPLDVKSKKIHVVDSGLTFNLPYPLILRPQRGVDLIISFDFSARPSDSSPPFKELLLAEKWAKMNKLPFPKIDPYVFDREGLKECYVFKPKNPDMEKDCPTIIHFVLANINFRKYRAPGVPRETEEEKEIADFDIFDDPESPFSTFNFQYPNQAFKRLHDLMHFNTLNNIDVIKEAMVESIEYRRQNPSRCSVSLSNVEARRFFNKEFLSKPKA
Method in brief: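 Percent inhibition at the stated concentration, from the rate of 460 nm emission rise (360 nm excitation) per minute. Reaction started by adding 4 μg enzyme to compound and 60 μM 7-hydroxycoumarinyl 6-heptenoate in Hepes buffer pH 7.5 with 1 mM EDTA.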

[2] = system: Rat Carrageenan-Induced Footpad Edema; assay: Rat Carrageenan-Induced Footpad Edema Test; type: in vivo, male Sprague Dawley rats; details: footpad volume 3 hours after carrageenan; for inhibition in vivo at 5 mg/kg / inhibition in vivo at 2 mg/kg / inhibition in vivo at 10 mg/kg: Rattus norvegicus, 3 h, read-out: PERCENT INHIBITION; for inhibition in vivo at 5 mg/kg: iv; for inhibition in vivo at 2 mg/kg / inhibition in vivo at 10 mg/kg: po
[3] = CONCENTRATION 20 micromolar, read-out: PERCENT INHIBITION @

inhibition at 20 µM [1, 3]: 50%
inhibition at 30 µM ([1]; read-out: PERCENT INHIBITION @): 50%
inhibition at 33.5 µM ([1]; CONCENTRATION 33.5 micromolar, read-out: PERCENT INHIBITION @): 50%
inhibition at 40 µM ([1]; CONCENTRATION 40 micromolar, read-out: PERCENT INHIBITION @): 50%
inhibition at 45 µM ([1]; CONCENTRATION 45 micromolar, read-out: PERCENT INHIBITION @): 50%
Compound: COc1cc(C(=O)O)ccc1Cc1cn(C(c2ccccc2)c2ccccc2)c2ccc(NS(C)(=O)=O)cc12 [Example 10, 4-({1-benzhydryl-5-[(methylsulfonyl)amino]-1H-indol-3-yl}methyl)-3-methoxybenzoic acid]
inhibition in vivo at 5 mg/kg ([2]; IV, 5 mg/Kg): 25.3%

inhibition at 10 µM ([1]; CONCENTRATION 10 micromolar, read-out: PERCENT INHIBITION @): 42%
inhibition at 12 µM ([1]; CONCENTRATION 12 micromolar, read-out: PERCENT INHIBITION @): 50%
inhibition at 12.5 µM ([1]; CONCENTRATION 12.5 micromolar, read-out: PERCENT INHIBITION @): 52%
inhibition at 20 µM [1, 3]: 36%
inhibition at 27.5 µM ([1]; CONCENTRATION 27.5 micromolar, read-out: PERCENT INHIBITION @): 50%
inhibition at 30 µM ([1]; read-out: PERCENT INHIBITION @): 50%
inhibition at 37 µM ([1]; CONCENTRATION 37 micromolar, read-out: PERCENT INHIBITION @): 50%
Compound: COc1cc(C(=O)O)ccc1Cc1cn(C(c2ccccc2)c2ccccc2)c2ccc(NC(=O)C3CCCC3)cc12 [Example 11, 4-({1-benzhydryl-5-[(cyclopentylcarbonyl)amino]-1H-indol-3-yl}methyl)-3-methoxybenzoic acid]
inhibition in vivo at 5 mg/kg ([2]; IV, 5 mg/Kg): 14%

inhibition at 0.39 µM ([1]; CONCENTRATION 0.39 micromolar, read-out: PERCENT INHIBITION @): 50%
inhibition at 0.4 µM ([1]; CONCENTRATION 0.4 micromolar, read-out: PERCENT INHIBITION @): 50%
inhibition at 0.48 µM ([1]; CONCENTRATION 0.48 micromolar, read-out: PERCENT INHIBITION @): 50%
inhibition at 0.55 µM ([1]; CONCENTRATION 0.55 micromolar, read-out: PERCENT INHIBITION @): 50%
inhibition at 0.6 µM ([1]; CONCENTRATION 0.6 micromolar, read-out: PERCENT INHIBITION @): 50%
inhibition at 0.65 µM ([1]; read-out: PERCENT INHIBITION @): 50%
inhibition at 0.7 µM ([1]; read-out: PERCENT INHIBITION @): 50%
inhibition at 0.75 µM ([1]; CONCENTRATION 0.75 micromolar, read-out: PERCENT INHIBITION @): 50%
inhibition at 0.95 µM ([1]; read-out: PERCENT INHIBITION @): 50%
inhibition at 2.5 µM ([1]; read-out: PERCENT INHIBITION @): 73%
inhibition at 6.25 µM ([1]; read-out: PERCENT INHIBITION @): 81%
Compound: COc1cc(C(=O)O)ccc1Cc1cn(C(c2ccccc2)c2ccccc2)c2ccc(Br)cc12 [Example 13, 4-[(1-benzhydryl-5-bromo-1H-indol-3-yl)methyl]-3-methoxybenzoic acid]
inhibition in vivo at 2 mg/kg ([2]; PO, 2 mg/Kg): 26%
inhibition in vivo at 10 mg/kg ([2]; PO, 10 mg/Kg): 23.6%

inhibition at 0.7 µM ([1]; read-out: PERCENT INHIBITION @): 50%
inhibition at 0.95 µM ([1]; read-out: PERCENT INHIBITION @): 50%
Compound: COc1cc(C(=O)O)ccc1Cc1cn(C(c2ccccc2)c2ccccc2)c2ccc(F)cc12 [Example 14, 4-[(1-benzhydryl-5-fluoro-1H-indol-3-yl)methyl]-3-methoxybenzoic acid]
inhibition in vivo at 2 mg/kg ([2]; PO, 2 mg/Kg): 11.5%
inhibition in vivo at 10 mg/kg ([2]; PO, 10 mg/Kg): 8.14%

inhibition at 0.65 µM ([1]; read-out: PERCENT INHIBITION @): 50%
inhibition at 0.72 µM ([1]; CONCENTRATION 0.72 micromolar, read-out: PERCENT INHIBITION @): 50%
inhibition at 0.76 µM ([1]; CONCENTRATION 0.76 micromolar, read-out: PERCENT INHIBITION @): 50%
inhibition at 0.85 µM ([1]; read-out: PERCENT INHIBITION @): 50%
inhibition at 6.25 µM ([1]; read-out: PERCENT INHIBITION @): 90%
Compound: COc1cc(C(=O)O)ccc1Cc1cn(C(c2ccccc2)c2ccccc2)c2ccc(C)cc12 [Example 15, 4-[(1-benzhydryl-5-methyl-1H-indol-3-yl)methyl]-3-methoxybenzoic acid]
inhibition in vivo at 2 mg/kg ([2]; PO, 2 mg/Kg): 7.05%
inhibition in vivo at 10 mg/kg ([2]; PO, 10 mg/Kg): 6.88%

PERCENT INHIBITION @ ([1]; CONCENTRATION 0.125 micromolar): 61% and 71%
inhibition at 0.14 µM ([1]; CONCENTRATION 0.14 micromolar, read-out: PERCENT INHIBITION @): 50%
inhibition at 0.17 µM ([1]; CONCENTRATION 0.17 micromolar, read-out: PERCENT INHIBITION @): 50%
inhibition at 0.25 µM ([1]; CONCENTRATION 0.25 micromolar, read-out: PERCENT INHIBITION @): 69%
inhibition at 6.25 µM ([1]; read-out: PERCENT INHIBITION @): 98%
Compound: COc1cc(C(=O)O)ccc1Cc1cn(C(c2ccccc2)c2ccccc2)c2cc3c(cc12)OCO3 [Example 16, 4-[(5-benzhydryl-5H-[1,3]dioxolo[4,5-f]indol-7-yl)methyl]-3-methoxybenzoic acid]
inhibition in vivo at 2 mg/kg ([2]; PO, 2 mg/Kg): 3.8%
inhibition in vivo at 10 mg/kg ([2]; PO, 10 mg/Kg): 15%

inhibition at 0.7 µM ([1]; read-out: PERCENT INHIBITION @): 50%
inhibition at 0.8 µM ([1]; CONCENTRATION 0.8 micromolar, read-out: PERCENT INHIBITION @): 50%
inhibition at 0.85 µM ([1]; read-out: PERCENT INHIBITION @): 50%
inhibition at 0.98 µM ([1]; CONCENTRATION 0.98 micromolar, read-out: PERCENT INHIBITION @): 50%
Compound: COc1cc(C(=O)O)ccc1Cc1cn(C(c2ccccc2)c2ccccc2)c2ccc(C#N)cc12 [Example 17, 4-[(1-benzhydryl-5-cyano-1H-indol-3-yl)methyl]-3-methoxybenzoic acid]
inhibition in vivo at 2 mg/kg ([2]; PO, 2 mg/Kg): 19.3%
inhibition in vivo at 10 mg/kg ([2]; PO, 10 mg/Kg): 34.5%

PERCENT INHIBITION @ ([1]; CONCENTRATION 100 micromolar): 50%
inhibition at 100 µM ([1]; CONCENTRATION 100 micromolar, read-out: PERCENT INHIBITION @): 42%
Compound: COc1cc(C(=O)NS(=O)(=O)c2ccccc2C)ccc1Cc1cn(C(C)C)c2ccc(NC(=O)OC3CCCC3)cc12 [Example 24, Cyclopentyl N-{1-isopropyl-3-[2-methoxy-4-({[(2-methylphenyl)sulfonyl]amino}carbonyl)benzyl]-1H-indol-5-yl}carbamate]
inhibition in vivo at 5 mg/kg ([2]; IV, 5 mg/Kg): 8.33%

inhibition at 2.4 µM ([1]; CONCENTRATION 2.4 micromolar, read-out: PERCENT INHIBITION @): 50%
inhibition at 2.5 µM ([1]; read-out: PERCENT INHIBITION @): 50%
Compound: COc1cc(C(=O)NS(=O)(=O)C(F)(F)F)ccc1Cc1cn(C(c2ccccc2)c2ccccc2)c2ccc(NC(=O)OC3CCCC3)cc12 [Example 26, Cyclopentyl N-{1-benzhydryl-3-[2-methoxy-4-({[(trifluoromethyl)sulfonyl]amino}carbonyl)benzyl]-1H-indol-5-yl}carbamate]
inhibition in vivo at 5 mg/kg ([2]; IV, 5 mg/Kg): 25.3%

inhibition at 6 µM ([1]; CONCENTRATION 6 micromolar, read-out: PERCENT INHIBITION @): 50%
inhibition at 6.4 µM ([1]; CONCENTRATION 6.4 micromolar, read-out: PERCENT INHIBITION @): 50%
Compound: COc1cc(C(=O)NS(C)(=O)=O)ccc1Cc1cn(C(c2ccccc2)c2ccccc2)c2ccc(NC(=O)OC3CCCC3)cc12 [Example 27, cyclopentyl N-[1-benzhydryl-3-(2-methoxy-4-{[(methylsulfonyl)amino]carbonyl}benzyl)-1H-indol-5-yl]carbamate]
inhibition in vivo at 5 mg/kg ([2]; IV, 5 mg/Kg): 6.48%

inhibition at 4.2 µM ([1]; CONCENTRATION 4.2 micromolar, read-out: PERCENT INHIBITION @): 50%
inhibition at 4.4 µM ([1]; CONCENTRATION 4.4 micromolar, read-out: PERCENT INHIBITION @): 50%
Compound: COc1cc(C(=O)NS(=O)(=O)c2ccccc2Cl)ccc1Cc1cn(C(c2ccccc2)c2ccccc2)c2ccc(NC(=O)OC3CCCC3)cc12 [Example 28, cyclopentyl N-{1-benzhydryl-3-[4-({[(2-chlorophenyl)sulfonyl]amino}carbonyl)-2-methoxybenzyl]-1H-indol-5-yl}carbamate]
inhibition in vivo at 5 mg/kg ([2]; IV, 5 mg/Kg): 0.29%

PERCENT INHIBITION @ ([1]; CONCENTRATION 8 micromolar): 50%
PERCENT INHIBITION @ ([1]; CONCENTRATION 20 micromolar): 46%
PERCENT INHIBITION @ ([1]; CONCENTRATION 21 micromolar): 50%
PERCENT INHIBITION @ ([1]; CONCENTRATION 24 micromolar): 50%
Compound: COc1cc(C(=O)NS(=O)(=O)c2cccc3c(N(C)C)cccc23)ccc1Cc1cn(C(c2ccccc2)c2ccccc2)c2ccc(NC(=O)OC3CCCC3)cc12 [Example 30]
PERCENT INHIBITION ([2]; IV, 5 mg/Kg): 13.89%
PERCENT INHIBITION ([2]; PO, 2 mg/Kg): −0.11%
PERCENT INHIBITION ([2]; PO, 10 mg/Kg): 13.25%
